The results in this text go back to patent publication US20160122386A1, “V1A RECEPTOR AGONISTS” (FERRING B.V., priority 2014, published 2016).

The target in the experiment is T1, human V1aR (Homo sapiens, UniProt P37288).
T1 construct: expressed in transfected cells
Nature of the experiment: Agonist activity at vasopressin V1a receptors, cell-based FLIPR calcium assay. Particulars: for Emax: read-out: Efficacy Avg. (%). A digest of the protocol: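 HEK Flp-In cells stably expressing human V1aR were loaded with Calcium 4 dye plus 2.5 mM probenecid for 1 h at 37 °C, then given half-log compound concentrations (final 0.1% DMSO) on FLIPR Tetra.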

Molecules are shown by their SMILES. Starred links: 1 amine or outer side, 2 acyl side, 3 side chain; linkers in the order of their positions; H or OH if unused. Positions of bridges follow the written chain, without caps; N, C: chain ends. Non-standard residues stand in square brackets, D forms with d. Residues, ends and D or L forms follow the SMILES beside them. Chains are numbered I, II in the order given. *: point of attachment. d(isoGln) = NC(=O)[C@@H](CCC(=O)[*:2])N[*:1]; Phe(4-Cl) = N[C@@H](Cc1ccc(Cl)cc1)C(=O)O; isoGln = NC(=O)[C@H](CCC(=O)[*:2])N[*:1]; d(εLys) = N[C@H](CCCCN[*:1])C(=O)[*:2]; εLys = N[C@@H](CCCCN[*:1])C(=O)[*:2]; X4 = N[C@H](CCC(=O)[*:2])C(=O)[*:1]; Aad = N[C@@H](CCCC(=O)O)C(=O)O; Orn = NCCC[C@H](N)C(=O)O; Dab = NCC[C@H](N)C(=O)O; PhAc = O=C(Cc1ccccc1)*

T1 sequence (P37288 whole entry): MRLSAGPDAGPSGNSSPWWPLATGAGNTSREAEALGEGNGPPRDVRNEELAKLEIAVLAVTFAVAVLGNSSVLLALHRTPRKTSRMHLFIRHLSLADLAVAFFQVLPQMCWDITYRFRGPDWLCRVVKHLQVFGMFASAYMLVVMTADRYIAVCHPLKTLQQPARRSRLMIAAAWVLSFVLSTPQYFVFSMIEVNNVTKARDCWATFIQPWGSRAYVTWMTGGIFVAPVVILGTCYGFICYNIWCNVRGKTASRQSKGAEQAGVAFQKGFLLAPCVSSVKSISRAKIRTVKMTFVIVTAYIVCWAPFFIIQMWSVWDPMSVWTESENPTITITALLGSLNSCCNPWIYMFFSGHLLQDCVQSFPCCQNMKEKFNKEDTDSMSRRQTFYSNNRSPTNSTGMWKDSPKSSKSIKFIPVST

For `CC[C@H](C)[C@@H]1NC(=O)[C@H](Cc2ccccc2)NC(=O)[C@@H](N)CSSC[C@@H](C(=O)N2CCC[C@H]2C(=O)N[C@@H](CCCNC(=O)[C@@H](N)CCCCNC(=O)CC[C@H](NC(=O)[C@H](CCCNC(=N)N)NC(=O)[C@@H]2CCCN2C(=O)[C@H](CCCNC(=N)N)NC(=O)[C@H](CC(N)=O)NC(=O)[C@@H](NC(=O)[C@H](Cc2ccccc2)NC(=O)[C@@H](Cc2ccc(OC)cc2)NC(=O)Cc2ccccc2)[C@@H](C)O)C(N)=O)C(=O)NCC(N)=O)NC(=O)[C@H](CC(N)=O)NC(=O)[C@H](CCC(N)=O)NC1=O` [Compound 22] (I: H-CFIQNCP[Orn]G-NH2 / II: PhAc-[dY](Me)FTNRPR[isoGln][εLys]; disulfide I:1-I:6; amide I:8-II:C), the EC50 (in general, the concentration giving half of the maximal effect) is 0.95 nM and the Emax was found to be 29%.
The like results for `CC[C@H](C)[C@@H]1NC(=O)[C@H](Cc2ccccc2)NC(=O)[C@@H](N)CSSC[C@@H](C(=O)N2CCC[C@H]2C(=O)N[C@@H](CCCNC(=O)[C@@H](N)CCCCNC(=O)CC[C@H](NC(=O)[C@H](CCCNC(=N)N)NC(=O)[C@@H]2CCCN2C(=O)[C@H](CCCNC(=N)N)NC(=O)[C@H](CC(N)=O)NC(=O)[C@H](CCC(N)=O)NC(=O)[C@H](Cc2ccccc2)NC(=O)[C@H](Cc2ccc(Cl)cc2)NC(=O)Cc2ccccc2)C(N)=O)C(=O)NCC(N)=O)NC(=O)[C@H](CC(N)=O)NC(=O)[C@H](CCC(N)=O)NC1=O` [Compound 27] (I: H-CFIQNCP[Orn]G-NH2 / II: PhAc-[Phe(4-Cl)]FQNRPR[isoGln][εLys]; disulfide I:1-I:6; amide I:8-II:C) were, in that order, 1 nM and 70%.
The like results for `CC[C@H](C)[C@@H]1NC(=O)[C@H](Cc2ccccc2)NC(=O)[C@@H](O)CSSC[C@@H](C(=O)N2CCC[C@H]2C(=O)N[C@@H](CCNC(=O)[C@@H](N)CCCCNC(=O)CC[C@H](NC(=O)[C@H](CCCNC(=N)N)NC(=O)[C@@H]2CCCN2C(=O)[C@H](CCCCN)NC(=O)[C@H](CC(N)=O)NC(=O)[C@H](CCC(N)=O)NC(=O)[C@H](Cc2ccccc2)NC(=O)[C@@H](Cc2ccc(OC)cc2)NC(=O)Cc2ccccc2)C(N)=O)C(=O)NCC(N)=O)NC(=O)[C@H](CC(N)=O)NC(=O)[C@H](CCC(N)=O)NC1=O` [Compound 32] were, in that order, 1 nM and 56%.
In the case of `CC[C@H](C)[C@@H]1NC(=O)[C@H](Cc2ccccc2)NC(=O)[C@@H](N)CSSC[C@@H](C(=O)N2CCC[C@H]2C(=O)N[C@@H](CCNC(=O)[C@H](N)CCCCNC(=O)CC[C@@H](NC(=O)[C@H](CCCNC(=N)N)NC(=O)[C@@H]2CCCN2C(=O)[C@H](C)NC(=O)[C@H](CC(N)=O)NC(=O)[C@H](CCC(N)=O)NC(=O)[C@H](Cc2ccccc2)NC(=O)[C@@H](Cc2ccc(OC)cc2)NC(=O)Cc2ccccc2)C(N)=O)C(=O)NCC(N)=O)NC(=O)[C@H](CC(N)=O)NC(=O)[C@H](CCCC(N)=O)NC1=O` [Compound 62] (I: H-CFI[Aad](NH2)NCP[Dab]G-NH2 / II: PhAc-[dY](Me)FQNAPR[d(isoGln)][d(εLys)]; disulfide I:1-I:6; amide I:8-II:C), the EC50 was found to be 2.5 nM and the Emax was 31%.
The like results for `CC[C@H](C)[C@@H]1NC(=O)[C@H](Cc2ccccc2)NC(=O)[C@@H](N)CSSC[C@@H](C(=O)N2CCC[C@H]2C(=O)N[C@@H](CCCNCCCCCNC(=O)CC[C@H](NC(=O)[C@H](CCCNC(=N)N)NC(=O)[C@@H]2CCCN2C(=O)[C@H](CCCNC(N)=O)NC(=O)[C@H](CC(N)=O)NC(=O)[C@H](CCC(N)=O)NC(=O)[C@H](CC(C)(C)C)NC(=O)[C@@H](Cc2ccc(OC)cc2)NC(=O)Cc2ccccc2)C(N)=O)C(=O)NCC(N)=O)NC(=O)[C@H](CC(N)=O)NC(=O)[C@H](CCC(N)=O)NC1=O` [Compound 46] were, in that order, 1.4 nM and 62%.
On the same counts, the results for `CC[C@H](C)[C@@H]1NC(=O)[C@H](Cc2ccccc2)NC(=O)[C@@H](N)CSSC[C@@H](C(=O)N2CCC[C@H]2C(=O)N[C@@H](CCNC(=O)[C@H](N)CCC(=O)NCCCC[C@H](NC(=O)[C@H](CCCNC(=N)N)NC(=O)[C@@H]2CCCN2C(=O)[C@H](C)NC(=O)[C@H](CC(N)=O)NC(=O)[C@H](CCC(N)=O)NC(=O)[C@H](Cc2ccccc2)NC(=O)[C@@H](Cc2ccc(OC)cc2)NC(=O)Cc2ccccc2)C(N)=O)C(=O)NCC(N)=O)NC(=O)[C@H](CC(N)=O)NC(=O)[C@H](CC(N)=O)NC1=O` [Compound 66] (I: H-CFINNCP[Dab]G-NH2 / II: PhAc-[dY](Me)FQNAPRK-NH2; disulfide I:1-I:6; linker I:8-II:8 via X4) are 2.3 nM and 30%.
For the compound `CC[C@H](C)[C@@H]1NC(=O)[C@H](Cc2ccccc2)NC(=O)[C@@H](N)CSSC[C@@H](C(=O)N2CCC[C@H]2C(=O)N[C@@H](CCNC(=O)[C@H](N)CCC(=O)NCCCC[C@H](NC(=O)[C@H](CCCNC(=N)N)NC(=O)[C@@H]2CCCN2C(=O)[C@H](C)NC(=O)[C@H](CC(N)=O)NC(=O)[C@H](CCC(N)=O)NC(=O)[C@H](Cc2ccccc2)NC(=O)[C@@H](Cc2ccc(OC)cc2)NC(=O)Cc2ccccc2)C(N)=O)C(=O)NCC(N)=O)NC(=O)[C@H](CC(N)=O)NC(=O)[C@H](CCCC(N)=O)NC1=O` [Compound 65] (I: H-CFI[Aad](NH2)NCP[Dab]G-NH2 / II: PhAc-[dY](Me)FQNAPRK-NH2; disulfide I:1-I:6; linker I:8-II:8 via X4), the EC50 worked out at 4.5 nM and the Emax is 31%.
As to `CC[C@H](C)[C@@H]1NC(=O)[C@H](Cc2ccccc2)NC(=O)[C@@H](N)CSSC[C@@H](C(=O)N2CCC[C@H]2C(=O)N[C@@H](CCNC(=O)[C@@H](N)CCCCNC(=O)CC[C@@H](NC(=O)[C@H](CCCNC(=N)N)NC(=O)[C@@H]2CCCN2C(=O)[C@H](C)NC(=O)[C@H](CC(N)=O)NC(=O)[C@H](CCC(N)=O)NC(=O)[C@H](Cc2ccccc2)NC(=O)[C@@H](Cc2ccc(OC)cc2)NC(=O)Cc2ccccc2)C(N)=O)C(=O)NCC(N)=O)NC(=O)[C@H](CC(N)=O)NC(=O)[C@H](CCCC(N)=O)NC1=O` [Compound 53] (I: H-CFI[Aad](NH2)NCP[Dab]G-NH2 / II: PhAc-[dY](Me)FQNAPR[d(isoGln)][εLys]; disulfide I:1-I:6; amide I:8-II:C), the EC50 was 1.7 nM and the Emax worked out at 43%.
On to `CC[C@H](C)[C@@H]1NC(=O)[C@H](Cc2ccccc2)NC(=O)[C@@H](N)CSSC[C@@H](C(=O)N2CCC[C@H]2C(=O)N[C@@H](CCCNCCCC(=O)NCCCC[C@H](NC(=O)[C@H](CCCNC(=N)N)NC(=O)[C@@H]2CCCN2C(=O)[C@H](CCCNC(=N)N)NC(=O)[C@H](CC(N)=O)NC(=O)[C@H](CCC(N)=O)NC(=O)[C@H](Cc2ccccc2)NC(=O)[C@@H](Cc2ccc(OC)cc2)NC(=O)Cc2ccccc2)C(N)=O)C(=O)NCC(N)=O)NC(=O)[C@H](CC(N)=O)NC(=O)[C@H](CCC(N)=O)NC1=O` [Compound 7], for which the EC50 was more than 10000 nM and the Emax worked out at 24%.
Take `CC[C@H](C)[C@@H]1NC(=O)[C@H](Cc2ccccc2)NC(=O)[C@@H](N)CSSC[C@@H](C(=O)N2CCC[C@H]2C(=O)N[C@@H](CCCNCCCCCNC(=O)CC[C@H](NC(=O)[C@H](CCCNC(=N)N)NC(=O)[C@@H]2CCCN2C(=O)[C@H](Cc2c[nH]cn2)NC(=O)[C@H](CC(N)=O)NC(=O)[C@H](CCC(N)=O)NC(=O)[C@H](Cc2ccccc2)NC(=O)[C@@H](Cc2ccc(OC)cc2)NC(=O)Cc2ccccc2)C(N)=O)C(=O)NCC(N)=O)NC(=O)[C@H](CC(N)=O)NC(=O)[C@H](CCC(N)=O)NC1=O` [Compound 13]: the EC50 was determined as 2.4 nM and the Emax amounted to 48%.
